For the first test, the system named is CD4+ T cells. Nature of the test: Meta-analysis of published SARS-CoV-2 CD4 T cell epitope data curated in the IEDB (25 studies). Format: cell-based, human. The following applies: CD4R (D) Megapool, non-spike antigens; dominant = recognized in 3 or more donors/studies.
Take 2296 (LRGHLRIAGHHLGRC) [compound 2296]: the Dominant entry is “Yes (more dominant epitopes are defined by being recognized by 3 or more donors/different studies)”.
Turning to “2295 (GAVILRGHLRIAGHHLGR) [compound 2295]”, the Dominant result was “Yes (more dominant epitopes are defined by being recognized by 3 or more donors/different studies)”.
On to 2292 (MWLSYFIASFRLFAR) [compound 2292], for which the Dominant result is reported as “Yes (more dominant epitopes are defined by being recognized by 3 or more donors/different studies)”.
As for 2287 (FYVYSRVKNLNSSRV) [compound 2287], the Dominant entry is “Yes (more dominant epitopes are defined by being recognized by 3 or more donors/different studies)”.
Consider 2289 (VLAAVYRINWITGGI) [compound 2289], for which the Dominant entry is “Yes (more dominant epitopes are defined by being recognized by 3 or more donors/different studies)”.
For the substance 2311 (IGYYRRATRRIRGGD) [compound 2311], the Dominant entry is given as “Yes (more dominant epitopes are defined by being recognized by 3 or more donors/different studies)”.
Turning to 2315 (NKDGIIWVATEGALN) [compound 2315], the Dominant entry is listed as “Yes (more dominant epitopes are defined by being recognized by 3 or more donors/different studies)”.
For 2288 (QFAYANRNRFLYIIK) [compound 2288], the Dominant entry is recorded as “Yes (more dominant epitopes are defined by being recognized by 3 or more donors/different studies)”.
Consider 2307 (SGFAAYSRYRIGNYK) [compound 2307], for which the Dominant entry is “Yes (more dominant epitopes are defined by being recognized by 3 or more donors/different studies)”.
Regarding 2320 (LLLLDRLNQLESKMS) [compound 2320], the Dominant entry is “Yes (more dominant epitopes are defined by being recognized by 3 or more donors/different studies)”.
Take 2309 (SWFTALTQHGKEDLK) [compound 2309]: the Dominant result is listed as “Yes (more dominant epitopes are defined by being recognized by 3 or more donors/different studies)”.
On to 2298 (IAGHHLGRCDIKDLP) [compound 2298], for which the Dominant entry is “Yes (more dominant epitopes are defined by being recognized by 3 or more donors/different studies)”.
Turning to 2319 (DAALALLLLDRLNQL) [compound 2319], the Dominant result was “Yes (more dominant epitopes are defined by being recognized by 3 or more donors/different studies)”.
Regarding 2314 (RWYFYYLGTGPEAGL) [compound 2314], the Dominant entry was “Yes (more dominant epitopes are defined by being recognized by 3 or more donors/different studies)”.
Regarding 2325 (LIRQGTDYKHWPQIA) [compound 2325], the Dominant entry is given as “Yes (more dominant epitopes are defined by being recognized by 3 or more donors/different studies)”.
For the substance 2290 (YRINWITGGIAIAMA) [compound 2290], the Dominant entry is “Yes (more dominant epitopes are defined by being recognized by 3 or more donors/different studies)”.
Take 2326 (YKHWPQIAQFAPSAS) [compound 2326]: the Dominant result was “Yes (more dominant epitopes are defined by being recognized by 3 or more donors/different studies)”.
For the substance 2345 (QEEVQELYSPIFLIV) [compound 2345], the Dominant entry is given as “Yes (more dominant epitopes are defined by being recognized by 3 or more donors/different studies)”.
As to 2328 (ASAFFGMSRIGMEVT) [compound 2328], the Dominant result is on record as “Yes (more dominant epitopes are defined by being recognized by 3 or more donors/different studies)”.
The same measure, in the same setting: in the case of 2332 (FKDQVILLNKHIDAY) [compound 2332] it was “Yes (more dominant epitopes are defined by being recognized by 3 or more donors/different studies)”.

Staying with this test, now noted: CD4RE megapool peptides (non-spike SARS-CoV-2 CD4 epitopes); dominant = recognized by 3 or more donors/different studies.
Regarding 2616 (FYVYSRVKNLNSSRV) [compound 2616], the Dominant entry is listed as “Yes (more dominant epitopes are defined by being recognized by 3 or more donors/different studies)”.
For the substance 2638 (SWFTALTQHGKEDLK) [compound 2638], the Dominant result is reported as “Yes (more dominant epitopes are defined by being recognized by 3 or more donors/different studies)”.
Regarding 2640 (IGYYRRATRRIRGGD) [compound 2640], the Dominant result is “Yes (more dominant epitopes are defined by being recognized by 3 or more donors/different studies)”.
In the case of 2652 (KRTATKAYNVTQAFG) [compound 2652], the Dominant result is recorded as “Yes (more dominant epitopes are defined by being recognized by 3 or more donors/different studies)”.
2619 (YRINWITGGIAIAMA) [compound 2619]: the Dominant entry was “Yes (more dominant epitopes are defined by being recognized by 3 or more donors/different studies)”.
Take 2641 (YYRRATRRIRGGDGK) [compound 2641]: the Dominant entry was “Yes (more dominant epitopes are defined by being recognized by 3 or more donors/different studies)”.
Consider 2657 (ASAFFGMSRIGMEVT) [compound 2657], for which the Dominant entry is recorded as “Yes (more dominant epitopes are defined by being recognized by 3 or more donors/different studies)”.
The same measure, in the same setting: next, “2631 (TSRTLSYYKLGASQRVA) [compound 2631]”: “Yes (more dominant epitopes are defined by being recognized by 3 or more donors/different studies)”; 2622 (TNILLNVPLHGTILT) [compound 2622]: “Yes (more dominant epitopes are defined by being recognized by 3 or more donors/different studies)”; 2646 (AIVLQLPQGTTLPKG) [compound 2646]: “Yes (more dominant epitopes are defined by being recognized by 3 or more donors/different studies)”.
Turning to 2648 (DAALALLLLDRLNQL) [compound 2648], the Dominant result is on record as “Yes (more dominant epitopes are defined by being recognized by 3 or more donors/different studies)”.

The record behind these values is US20250231185A1, “Coronavirus T Cell Epitopes, Megapools and Uses Thereof” (La Jolla Institute for Immunology, priority 2021, published 2025).
